From ChEMBL document CHEMBL5724914, “Linking interpersonal differences in gut microbiota composition and drug biotransformation activity” (2024)

Tests used:
[1] = human gut metagenome, 24 h, 2 µM
[2] = (§1) The drug is tested on WLS-077 corresponding to human gut metagenome with ENA study accession number: PRJEB37062 and ENA sample accession number: ERS12561750 for biotransformation under anaerobic condition. The drug concentrations were measured over 9 timepoints collected between 0 and 24 hours of incubation by liquid-chromatography-coupled mass spectrometry (LC–MS); conditions: 2 µM
[3] = human gut metagenome, 24 h, 2 µM; remark: listed apart in the source
[4] = human gut metagenome, 24 h, 2 µM; remark: listed apart in the source
[5] = as §1, with “Z-016” for “WLS-077”, “mouse” for “human”, “ERS12561815” for “ERS12561750”; conditions: 2 µM
[6] = human gut metagenome, 24 h, 2 µM; remark: listed apart in the source
[7] = human gut metagenome, 24 h, 2 µM; remark: listed apart in the source
[8] = human gut metagenome, 24 h, 2 µM; remark: listed apart in the source
[9] = as §1, with “Z-013” for “WLS-077”, “rabbit” for “human”, “ERS12561813” for “ERS12561750”; conditions: 2 µM
[10] = as §1, with “WLS-052” for “WLS-077”, “ERS12561747” for “ERS12561750”; conditions: 2 µM
[11] = as §1, with “Z-011” for “WLS-077”, “mouse” for “human”, “ERS12561811” for “ERS12561750”; conditions: 2 µM
[12] = as §1, with “Z-001” for “WLS-077”, “mouse” for “human”, “ERS12561801” for “ERS12561750”; conditions: 2 µM
[13] = human gut metagenome, 24 h, 2 µM; remark: listed apart in the source
[14] = human gut metagenome, 24 h, 2 µM; remark: listed apart in the source
[15] = as §1, with “Z-024” for “WLS-077”, “pig” for “human”, “ERS12561823” for “ERS12561750”; conditions: 2 µM
[16] = as §1, with “Z-022” for “WLS-077”, “mouse” for “human”, “ERS12561821” for “ERS12561750”; conditions: 2 µM
[17] = as §1, with “Z-007” for “WLS-077”, “rat” for “human”, “ERS12561807” for “ERS12561750”; conditions: 2 µM
[18] = as §1, with “Z-019” for “WLS-077”, “rat” for “human”, “ERS12561818” for “ERS12561750”; conditions: 2 µM
[19] = as §1, with “Z-014” for “WLS-077”, “rat” for “human”, “ERS12561814” for “ERS12561750”; conditions: 2 µM
[20] = human gut metagenome, 24 h, 2 µM; remark: listed apart in the source
Note: call rule not given here.

Compound	Bacterial Biotransformation [1]	Bacterial Biotransformation [2]	Bacterial Biotransformation [3]	Bacterial Biotransformation [4]	Bacterial Biotransformation [5]	Bacterial Biotransformation [6]	Bacterial Biotransformation [7]	Bacterial Biotransformation [8]	Bacterial Biotransformation [9]	Bacterial Biotransformation [10]	Bacterial Biotransformation [11]	Bacterial Biotransformation [12]	Bacterial Biotransformation [13]	Bacterial Biotransformation [14]	Bacterial Biotransformation [15]	Bacterial Biotransformation [16]	Bacterial Biotransformation [17]	Bacterial Biotransformation [18]	Bacterial Biotransformation [19]	Bacterial Biotransformation [20]
CNCCC(Oc1ccc(C(F)(F)F)cc1)c1ccccc1 (stereo not given) [FLUOXETINE]	Compound NOT metabolized	Compound NOT metabolized	Compound NOT metabolized	Compound NOT metabolized	Compound NOT metabolized	Compound NOT metabolized	Compound metabolized	Compound NOT metabolized	Compound NOT metabolized	Compound NOT metabolized	Compound NOT metabolized	Compound NOT metabolized	Compound NOT metabolized	Compound NOT metabolized	Compound NOT metabolized	Compound NOT metabolized	Compound NOT metabolized	Compound NOT metabolized	Compound NOT metabolized	Compound NOT metabolized
CCOC(=O)[C@H](CCc1ccccc1)N[C@H]1CCc2ccccc2N(CC(=O)O)C1=O [BENAZEPRIL]	Compound metabolized	Compound metabolized	Compound metabolized	Compound NOT metabolized	Compound metabolized	Compound metabolized	Compound metabolized	Compound metabolized	Compound NOT metabolized	Compound metabolized	Compound metabolized	Compound metabolized	Compound metabolized	Compound metabolized	Compound metabolized	Compound metabolized	Compound metabolized	Compound NOT metabolized	Compound NOT metabolized	Compound metabolized
CCCCCOC(=O)Nc1nc(=O)n([C@@H]2O[C@H](C)[C@@H](O)[C@H]2O)cc1F [CAPECITABINE]	Compound metabolized	Compound metabolized	Compound metabolized	Compound NOT metabolized	Compound metabolized	Compound metabolized	Compound metabolized	Compound metabolized	Compound metabolized	Compound metabolized	Compound metabolized	Compound metabolized	Compound metabolized	Compound metabolized	Compound metabolized	Compound NOT metabolized	Compound NOT metabolized	Compound NOT metabolized	Compound NOT metabolized	Compound metabolized
CN(C)CC(c1ccc(O)cc1)C1(O)CCCCC1.O=C(O)CCC(=O)O (stereo not given) [DESVENLAFAXINE SUCCINATE]	Compound NOT metabolized	Compound NOT metabolized	Compound NOT metabolized	Compound NOT metabolized	Compound NOT metabolized	Compound NOT metabolized	Compound NOT metabolized	Compound NOT metabolized	Compound NOT metabolized	Compound NOT metabolized	Compound NOT metabolized	Compound NOT metabolized	Compound NOT metabolized	Compound NOT metabolized	Compound NOT metabolized	Compound NOT metabolized	Compound NOT metabolized	Compound NOT metabolized	Compound NOT metabolized	Compound NOT metabolized
CCCC(=O)Nc1ccc(OCC(O)CNC(C)C)c(C(C)=O)c1 (stereo not given) [ACEBUTOLOL]	Compound metabolized	Compound NOT metabolized	Compound metabolized	Compound NOT metabolized	Compound NOT metabolized	Compound metabolized	Compound metabolized	Compound metabolized	Compound NOT metabolized	Compound NOT metabolized	Compound NOT metabolized	Compound NOT metabolized	Compound metabolized	Compound metabolized	Compound NOT metabolized	Compound metabolized	Compound NOT metabolized	Compound NOT metabolized	Compound NOT metabolized	Compound NOT metabolized
Clc1ccc(Cn2c(CN3CCCC3)nc3ccccc32)cc1 [CLEMIZOLE]	Compound NOT metabolized	Compound NOT metabolized	Compound metabolized	Compound metabolized	Compound NOT metabolized	Compound metabolized	Compound metabolized	Compound metabolized	Compound metabolized	Compound metabolized	Compound NOT metabolized	Compound metabolized	Compound metabolized	Compound metabolized	Compound metabolized	Compound NOT metabolized	Compound NOT metabolized	Compound NOT metabolized	Compound NOT metabolized	Compound metabolized
CCCCC1=NC2(CCCC2)C(=O)N1Cc1ccc(-c2ccccc2-c2nnn[nH]2)cc1 [IRBESARTAN]	Compound metabolized	Compound metabolized	Compound metabolized	Compound metabolized	Compound NOT metabolized	Compound metabolized	Compound metabolized	Compound metabolized	Compound NOT metabolized	Compound metabolized	Compound NOT metabolized	Compound metabolized	Compound metabolized	Compound metabolized	Compound metabolized	Compound NOT metabolized	Compound NOT metabolized	Compound NOT metabolized	Compound NOT metabolized	Compound metabolized
CCN(CC)CCNC(C(=O)OCCC(C)C)c1ccccc1.Cl.Cl (stereo not given)	Compound NOT metabolized	Compound metabolized	Compound metabolized	Compound NOT metabolized	Compound NOT metabolized	Compound metabolized	Compound metabolized	Compound metabolized	Compound NOT metabolized	Compound NOT metabolized	Compound NOT metabolized	Compound metabolized	Compound metabolized	Compound metabolized	Compound metabolized	Compound metabolized	Compound NOT metabolized	Compound NOT metabolized	Compound NOT metabolized	Compound metabolized
